Blank lines part the entries; values can stand above or below the compound they belong to.
Key:
ODC [1] = target: T1, ODC (Rattus norvegicus, UniProt P09057); settings: for inhibition at 15000 µM: read-out: ODC activity decreased
T1 sequence (P09057 1-461): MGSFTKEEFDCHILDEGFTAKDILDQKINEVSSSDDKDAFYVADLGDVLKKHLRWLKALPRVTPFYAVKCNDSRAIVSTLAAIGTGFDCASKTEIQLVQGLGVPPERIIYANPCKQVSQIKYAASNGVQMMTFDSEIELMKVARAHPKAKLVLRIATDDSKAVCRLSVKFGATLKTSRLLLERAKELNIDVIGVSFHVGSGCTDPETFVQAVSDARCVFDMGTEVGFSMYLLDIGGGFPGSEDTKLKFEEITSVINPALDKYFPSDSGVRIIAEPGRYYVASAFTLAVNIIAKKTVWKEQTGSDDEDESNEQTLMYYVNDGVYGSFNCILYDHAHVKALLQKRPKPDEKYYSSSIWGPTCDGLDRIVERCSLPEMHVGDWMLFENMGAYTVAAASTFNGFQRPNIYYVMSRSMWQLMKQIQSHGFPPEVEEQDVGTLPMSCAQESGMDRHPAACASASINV

[2] = test system: rat H-4-II-E hepatoma cells; experiment: Proliferation of rat H-4-II-E hepatoma cells in culture; assay type: cell-based
Procedure: (§1) Incubation of the cultures was carried out in standard fashion in the presence of 1 mM aminoguandine, an inhibitor of polyamine oxidases (PAO).
Cell proliferation studies were also conducted to analyze the effect of the terminal groups on cell inhibition. […] The results are depicted graphically in FIG. 5.
Comparative proliferation studies were also carried out to study the effect of chain length on the inhibitory effect of N,N'-dibenzylaminoalkanes. (See FIG. 6.) The in vitro inhibitory effects of DMP, DMC, and DBPr, were studied in the same rat H-4-II-E hepatoma cells as the above experiments.
Results are shown graphically in FIG. 10.

[3] = test system: rat H-4-II-E hepatoma cells; experiment: Cell morphology of rat H-4-II-E hepatoma cells (photomicrographs); assay type: cell-based
Procedure: as §1
FIG. 7 is a series of photomicrographs (×160) of the above homologous cultures. The photomicrographs were taken 24 hours after introduction of the dibenzyldiaminoalkanes. […] Photo 7A is the control culture.

ODC [4] = target: T1, ODC; experiment: ODC activity in insulin-induced H-35 hepatoma cells; assay type: cell-based; settings: 100 μM; for ODC activity (in words): added simultaneously with insulin
Procedure: It is known that in hepatoma H-35 cells, ODC activity is very low in quiescent cells, and is increased by the addition of 10^-6 M insulin, reaching a peak approximately 4 to 5 hours after the addition of the insulin.

[5] = test system: insulin-induced H-35 hepatoma cells; experiment: Intracellular polyamine levels in insulin-induced H-35 hepatoma cells; assay type: cell-based, rat; settings: 100 μM, hour 4
[6] = test system: cell-derived rat and human xenografts; settings: compared with 0.15% DBP; cited from earlier work
[7] = test system: active putrescine transport; experiment: Uptake of (1,4-14C)-putrescine by H-4-II-E hepatoma cells; assay type: cell-based, rat
Procedure: (1,4-^14 C)-putrescine (10 μM) was added to the culture medium, and radioactivity measured in the cells (dpm/10 μg of protein). Uptake by control cells was considered to be 100%.
Because putrescine uptake by cells is regulated by an active transport system, its Km was determined for the H-4-II-E hepatoma cell line. The uptake of (1,4-^14 C)-putrescine was determined at two different putrescine concentrations as a function of time.
Each value of the plot was corrected by subtracting the amount of label due to non-specific binding to the cell membranae.

H-35 cells = experiment: DBP uptake and intracellular distribution in H-35 hepatoma cells; assay type: in vitro ADME, rat
[8] = added 3 hours after insulin (time 4 hours)
[9] = H-35 cells not treated with insulin

ODC inhibition (in words) (ODC [4]; [8]): ODC inhibition values were very similar | ODC activity (in words) (ODC [4]): no significant ODC activity was detected | in vitro ODC inhibition (in words) (ODC [1]; isolated ODC): weaker inhibitors than putrescine itself | inhibition at 15000 µM (ODC [1]): < 10%
Structure (SMILES): c1ccc(CNCCCCCNCc2ccccc2)cc1 [DBC, N,N'-dibenzylcadaverine]
effect on cell proliferation ([2]; 100 μM, time not stated): showed inhibition of cell proliferation | effect on cell morphology ([3]; 100 μM, 24 hours): affect cell morphology similarly | inhibition of uptake of exogenous putrescine ([7]; (1,4-14C)-putrescine 10 μM): produced an inhibition of the uptake of exogenous putrescine

inhibition at 15000 µM (ODC [1]): < 10%
Structure (SMILES): c1ccc(CNCCCNCc2ccccc2)cc1 [DBPr, dibenzylpropanediamine]

ODC inhibition (in words) (ODC [4]; [8]): ODC inhibition values were very similar | ODC activity (in words) (ODC [4]): no significant ODC activity was detected | intracellular distribution of DBP, cytosol (H-35 cells; [9]): 97% | intracellular distribution of DBP, nuclear fraction (H-35 cells; [9]): 2% | DBP uptake, of the amount added (H-35 cells; H-35 cells not treated with insulin, 100 μM, 24 hours): approximately 6±2% | DBP uptake, of the amount of putrescine added to the medium (H-35 cells; insulin-induced H-35 cells, 100 μM): approximately 13±4% | inhibition at 15000 µM (ODC [1]): < 10%
Structure (SMILES): c1ccc(CNCCCCNCc2ccccc2)cc1 [DBP, N,N'-dibenzylputrescine]
ODC inhibition (in words) (ODC [4]; time 1 hour): required longer time periods to reach similar ODC inhibition levels

Continued, compound first:

Structure (SMILES): CCNCCCCNCC [DEP, diethyl putrescine]
inhibition at 15000 µM (ODC [1]): 13%

Structure (SMILES): NCCCC(N)(C(=O)O)C(F)F (stereo not drawn) [DFMO, difluoromethylornithine]
effect on cell proliferation ([2]; 100 μM, time not stated): ineffective in inhibiting cell proliferation | effect on cell proliferation ([2]; 1 mM, after 48 hours): inhibit cell proliferation | minimal effective concentration ([2]; H4IIE, rat hepatoma cell line, read-out: concentration required for similar cytostatic effect): 1000 µM | effect on cell morphology ([3]; 100 μM, 24 hours): no morphological changes | effect on cell morphology ([3]; 1 mM): no morphological changes | ODC inhibited from the control group (ODC [4]; added 1 hour before harvesting (6 hours after insulin)): 79% | ODC inhibition (in words) (ODC [4]; [8]): ODC inhibition values were very similar | ODC activity (in words) (ODC [4]): no significant ODC activity was detected | intracellular putrescine level [5]: decreased the endogenous levels of putrescine | intracellular spermidine level [5]: lowered the levels of spermidine | intracellular spermine level [5]: Neither reagent had an effect on the intracellular concentration of spermine | concentration required to produce the same effect on xenografts [6]: 2%

Structure (SMILES): CNCCCCNC [DMP, dimethyl putrescine]
inhibition at 15000 µM (ODC [1]): 33%

Structure (SMILES): NCCCCN [putrescine, 1,4-diaminobutane]
Km ([7]; 2 mM and 20 mM (1,4-14C)-putrescine): 5.2 ± 0.6 µM | ODC inhibition (in words) (ODC [4]; time 1 hour): required longer time periods to reach similar ODC inhibition levels | intracellular putrescine level [5]: greatly increased the putrescine cell contents | intracellular spermidine level [5]: very little effect on intracellular spermidine and spermine levels | intracellular spermine level [5]: very little effect on intracellular spermidine and spermine levels | inhibition at 15000 µM (ODC [1]): 57%

— patent US5677350A, “Inhibition of cancer cell growth, proliferation, and metastasis using N,N'-dα,ω-diaminoalkanes” (priority 1995, dated 1997)
